These results are taken from patent publication US20220363681A1, “OXO SIX-MEMBERED CYCLOPYRIMIDINE COMPOUND, PREPARATION METHOD AND MEDICAL USE THEREOF” (GenFleet Therapeutics (Shanghai) Inc., priority 2019, published 2022).

A value given as a limit tells only on which side of the number the result lay.

Test [1] concerns A549 cells (Kras G12S mutation). The test can be described thus: Cell proliferation inhibition experiment, 3D cell model, CellTiter-Glo (A549). It counts as cell-based, human. The note with it: A549, 2% FBS F-12K, 384-well sphere plate, cultured 5 days with compound. The protocol: (§1) NCI-H358 was a human non-small cell lung cancer cell line with Kras G12C mutation, cultured in 10% FBS RPMI-1640 medium; A549 was a human lung adenocarcinoma cell line with Kras G12S mutation, cultured in 10% FBS F-12K medium. The cells in the logarithmic growth phase was taken, digested with trypsin EDTA, collected and counted, and H358 was adjusted to 1.8E4 cells/ml using 2% FBS RPMI-1640 medium, and A549 was adjusted to 8.9E3 cells/ml using 2% FBS F-12K medium; 800 (45 μl) H358 or 400 (45 μl) A549 cells were seeded in a 384-well sphere plate respectively, cultured overnight to establish a 3D cell model. DMSO was used to prepare 1000× compound 3.16-fold gradient concentration stock solution, and 2% FBS medium was used to dilute 100-fold to 10× compound stock solution. On the second day after cell seeding, 5 μl 10× compound stock solution was added to each cell culture well, the final concentration was 1×, and DMSO content was 0.1%. DMSO was used as the experimental control (control) and 2% FBS medium as the blank control (blank). After the compound and cells were added and cultured for 5 days, 25 μl CellTiter-Glo working solution was added to each well, mixed at 400 rpm and incubated for 30 minutes. After standing 30 minutes at room temperature, 40 μl of the mixture was transfered to a 384-well plate with a non-transparent white bottom, the luminescence chemiluminescence value was read, and the cells proliferation inhibition rate IR (%)=(RLU control-RLU compound)/(RLU control-RLU blank)×100% was calculated, Prism 6 four-parameter method was used to fit the compound's gradient dilution concentration and the corresponding cell proliferation inhibition rate, and the IC50 value was calculated.

For test [2], the system named is Kras G12C mutant NCI-H358 cells. The test can be described thus: Cell proliferation inhibition experiment, 3D cell model, CellTiter-Glo (H358). It counts as cell-based, human. The settings on record: NCI-H358, 2% FBS RPMI-1640, 384-well sphere plate, cultured 5 days with compound. The protocol: as §1
In general terms: ATP-based viability assays read luminescence as a measure of living cells.

For `C=CC(=O)N1CCN(c2nc(OC3CCN(C)CC3)nc3c(OC4CC4)c(-c4c(C)ccc5[nH]ncc45)c(Cl)cc23)CC1` (single isomer, unassigned) [Compound Z12A], the half-inhibitory concentration (IC50) is over 1000 nM in test [1] and 9 nM in test [2].

As to `C=CC(=O)N1CCN(c2nc(OC[C@@H]3CCCN3C)nc3c(OC4CC4)c(-c4c(C)ccc5[nH]ncc45)c(Cl)cc23)CC1` [Compound Z7, 1-(4-(6-chloro-8-cyclopropoxy-7-(5-methyl-1H-indazol-4-yl)-2-(((S)-1-methylpyrrolidin-2-yl)methoxy)quinazolinpyridin-4-yl)piperazin-1-yl)prop-2-en-1-one], the half-inhibitory concentration (IC50) was over 1000 nM in test [1] (Homo sapiens, A549, 120 h) and 16 nM in test [2].

Turning to `C=CC(=O)N1CCN(c2nc(OC[C@@H]3CCCN3C)nc3c(OC4CCOC4)c(-c4c(C)ccc5[nH]ncc45)c(Cl)cc23)CC1` (stereo partly drawn) [Compound Z10A, 1-(4-(6-chloro-7-(5-methyl-1H-indazol-4-yl)-2-(((S)-1-methylpyrrolidin-2-yl)methoxy)-8-((tetrahydrofuran-3-yl)oxy)quinazolin-4-yl)piperazin-1-yl)prop-2-en-1-one], the IC50 in test [1] (Homo sapiens, A549, 120 h) was over 10000 nM; in test [2] (Homo sapiens, NCI-H358, 120 h) it was 257 nM.

For the compound `C=CC(=O)N1CCN(c2nc(N3CC(N(C)C)C3)nc3c(OC4CC4)c(-c4c(C)ccc5[nH]ncc45)c(Cl)cc23)CC1` [Compound Z33, 1-(4-(6-chloro-8-cyclopropoxy-2-(3-(dimethylamino)azetidine-1-yl)-7-(5-methyl-1H-indazol-4-yl)quinazolin-4-yl)piperazin-1-yl)prop-2-en-1-one], the half-inhibitory concentration (IC50) in test [1] (Homo sapiens, A549, 120 h) was over 5000 nM; in test [2] (Homo sapiens, NCI-H358, 120 h), 39 nM.

With `C=CC(=O)N1CCN(c2nc(OC[C@@H]3C[C@@H](F)CN3C)nc3c(OC4CC4)c(-c4c(C)ccc5[nH]ncc45)c(Cl)cc23)CC1` [Compound Z38, 1-(4-(6-chloro-8-cyclopropoxy-2-((((2S, 4R)-4-fluoro-1-methylpyrrolidin-2-yl)methoxy)-7]-(5-methyl-1H-indazol-4-yl)quinazolin-4-yl)piperazin-1-yl)prop-2-en-1-one], the half-inhibitory concentration (IC50) was over 30000 nM in test [1] (Homo sapiens, A549, 120 h) and 19 nM in test [2] (Homo sapiens, NCI-H358, 120 h).

For the compound `C=CC(=O)N1CCN(c2nc(OC[C@@H]3CCCN3C)nc3c(OC4CC4)c(-c4c(C)ccc5[nH]nc(F)c45)c(Cl)cc23)CC1` [Compound Z47, 1-(4-(6-chloro-8-cyclopropoxy-7-(3-fluoro-5-methyl-1H-indazol-4-yl)-2-((((S)-1-methylpyrrolidin-2-yl))methoxy)quinazolin-4-yl)piperazin-1-yl)prop-2-en-1-one], the IC50 in test [1] (Homo sapiens, A549, 120 h) was over 5000 nM; in test [2] (Homo sapiens, NCI-H358, 120 h), 38 nM.

On to `C=CC(=O)N1CCN(c2nc(OC[C@@H]3CCCN3C)nc3c(OC4CC(F)(F)C4)c(-c4c(C)ccc5[nH]ncc45)c(Cl)cc23)CC1` [Compound Z4, 1-(4-(6-chloro-8-(3,3-difluorocyclobutoxy)-7-(5-methyl-1H-indazol-4-yl)-2-(((S)-1-methylpyrrolidin-2-yl)methoxy)quinazolin-4-yl)piperazin-1-yl)prop-2-en-1-one], for which the half-inhibitory concentration (IC50) in test [1] (Homo sapiens, A549, 120 h) is over 1000 nM; in test [2] (Homo sapiens, NCI-H358, 120 h) it was 136 nM.

Consider `C=CC(=O)N1CCN(c2nc(OC[C@@H]3CCCN3C)nc3c(OC4CC(F)(F)C4)c(-c4c(C)ccc5[nH]ncc45)c(Cl)cc23)C[C@@H]1CC#N` [Compound Z6, 2-((2S)-1-acryloyl-4-(6-chloro-8-(3,3-difluorocyclobutoxy)-7-(5-methyl-1H-indazol-4-yl)-2-(((S)-1-methylpyrrolidin-2-yl)methoxy)quinazolin-4-yl)piperazin-2-yl) acetonitrile], for which the 50% inhibitory concentration (IC50) in test [1] (Homo sapiens, A549, 120 h) was over 5000 nM; in test [2] (Homo sapiens, NCI-H358, 120 h) it was 139 nM.

As for `C=CC(=O)N1CCN(c2nc(N3CCC(N(C)C)CC3)nc3c(OC4CC4)c(-c4c(C)ccc5[nH]ncc45)c(Cl)cc23)CC1` [Compound Z34, 1-(4-(6-chloro-8-cyclopropoxy-2-(4-(dimethylamino)piperidin-1-yl)-7-(5-methyl-1H-indazol-4-yl)quinazolin-4-yl)piperazin-1-yl)prop-2-en-1-one], the IC50 was over 30000 nM in test [1] (Homo sapiens, A549, 120 h) and 38 nM in test [2] (Homo sapiens, NCI-H358, 120 h).

Turning to `C=CC(=O)N1CCN(c2nc(OC[C@@H]3CCCN3C)nc3c(OC4CC4)c(-c4c(C)ccc5[nH]ncc45)c(OC)cc23)[C@@H](C)C1` (single isomer, unassigned) [Compound Z48B], the IC50 was over 10000 nM in test [1] (Homo sapiens, A549, 120 h) and 10 nM in test [2] (Homo sapiens, NCI-H358, 120 h).

With `C=CC(=O)N1CCN(c2nc(OCCN(C)C)nc3c(OC4CC4)c(-c4c(C)ccc5[nH]ncc45)c(Cl)cc23)CC1` [Compound Z36], the concentration for half-maximal inhibition (IC50) was over 30000 nM in test [1] (Homo sapiens, A549, 120 h) and 16 nM in test [2] (Homo sapiens, NCI-H358, 120 h).

For `C=CC(=O)N1[C@@H]2CC[C@H]1CN(c1nc(OC[C@@H]3CCCN3C)nc3c(OC4CC4)c(-c4c(C)ccc5[nH]ncc45)c(Cl)cc13)C2` [Compound Z42, 1-((1R, 5S)-3-(6-chloro-8-cyclopropoxy-7-(5-methyl-1H-indazol-4-yl)-2-(((S)-1-methylpyrrolidin-2-yl)methoxy)quinazolin-4-yl)-3,8-diazabicyclo[3.2.1]octane-8-yl)prop-2-en-1-one], the IC50 in test [1] (Homo sapiens, A549, 120 h) was over 30000 nM; in test [2] (Homo sapiens, NCI-H358, 120 h), 331 nM.

As to `C=CC(=O)N1CCN(c2nc(OC[C@@H]3CCCN3C)nc3c(OC4CC4)c(-c4c(C)ccc5[nH]ncc45)c(Cl)cc23)C[C@H]1C` [Compound Z30, 1-((2R)-4-(6-chloro-8-cyclopropoxy-7-(5-methyl-1H-indazol-4-yl)-2-((((S)-1-methylpyrrolidin-2-yl))methoxy)quinazolin-4-yl)-2-methylpiperazin-1-yl)prop-2-en-1-one], the IC50 is over 5000 nM in test [1] (Homo sapiens, A549, 120 h) and 26 nM in test [2] (Homo sapiens, NCI-H358, 120 h).

Usually IC50 stands for the midpoint of a concentration-inhibition curve.
